Columns and labels:
Pseudomonas aeruginosa = assay: Antibacterial activity against Pseudomonas aeruginosa measured by broth microdilution method; type: functional, organism-based
Candida albicans = assay: Antifungal activity against Candida albicans measured by broth microdilution method; type: functional, organism-based
Escherichia = assay: Antibacterial activity against Escherichia measured by broth microdilution method; type: functional, organism-based
Staphylococcus aureus = assay: Antibacterial activity against Staphylococcus aureus measured by broth microdilution method; type: functional, organism-based
Bacillus subtilis = assay: Antibacterial activity against Bacillus subtilis measured by broth microdilution method; type: functional, organism-based
[1] = test system: Limosilactobacillus fermentum; assay: Antibacterial activity against Lactobacillus fermentum measured by broth microdilution method; type: functional, organism-based
HepG2 = assay: Cytotoxicity against human HepG2 cells assessed as cell viability measured by MTT assay; type: functional, cell-based
KB = assay: Cytotoxicity against human KB cells assessed as cell viability measured by MTT assay; type: functional, cell-based
[2] = Cytotoxicity against human Lu1 cells assessed as cell viability measured by MTT assay; type: functional, cell-based
HEK293 = assay: Cytotoxicity against human HEK293 cells assessed as cell viability measured by MTT assay; type: cell-based
MCF7 = assay: Cytotoxicity against human MCF7 cells assessed as cell viability measured by MTT assay; type: functional, cell-based
Salmonella enterica = assay: Antibacterial activity against Salmonella enterica measured by broth microdilution method; type: functional, organism-based

Row | Compound | IC50 (Pseudomonas aeruginosa) | IC50 (Candida albicans) | IC50 (Escherichia) | IC50 (Staphylococcus aureus) | IC50 (Bacillus subtilis) | IC50 [1] | IC50 (Salmonella enterica) | IC50 (HepG2) | IC50 (KB) | IC50 [2] | IC50 (HEK293) | IC50 (MCF7)
1 | CN1N=C(c2cccc(Br)c2)C(c2cccc(Br)c2)c2c1c1ccccc1c1nc3ccccc3nc21 (stereo not given) | > 100 µM | > 100 µM | > 100 µM | 84.4 µM | 84.6 µM | > 100 µM | > 100 µM | > 100 µM | > 100 µM | > 100 µM | > 100 µM | > 100 µM
2 | CN1N=C(c2ccccc2)C(c2ccccc2)c2c1c1ccccc1c1nc3ccccc3nc21 (stereo not given) | > 100 µM | > 100 µM | > 100 µM | > 100 µM | > 100 µM | > 100 µM | > 100 µM | 10.5 µM | 19.4 µM | 18.6 µM | > 100 µM | 22 µM
3 | CN1N=C(c2ccc3ccccc3c2)C(c2ccc3ccccc3c2)c2c1c1ccccc1c1nc3ccccc3nc21 (stereo not given) | > 100 µM | > 100 µM | > 100 µM | > 100 µM | > 100 µM | > 100 µM | > 100 µM | 81.4 µM | > 100 µM | > 100 µM | > 100 µM | > 100 µM
4 | Cc1c2ccncc2c(C)c2c1[nH]c1ccccc12 [ELLIPTECINE] | – | – | – | – | – | – | – | 1.34 µM | 1.26 µM | 1.83 µM | 6.58 µM | 2.48 µM
5 | CC1(C)S[C@@H]2[C@H](NC(=O)[C@H](N)c3ccccc3)C(=O)N2[C@H]1C(=O)O [AMPICILLIN] | – | – | – | 0.02 µM | 0.3 µM | – | – | – | – | – | – | –

Further lines, with some results ahead:

Row | IC50 (Pseudomonas aeruginosa) | IC50 (Candida albicans) | IC50 (Escherichia) | IC50 (Staphylococcus aureus) | IC50 (Bacillus subtilis) | IC50 [1] | IC50 (Salmonella enterica) | Compound | IC50 (HepG2) | IC50 (KB) | IC50 [2] | IC50 (HEK293) | IC50 (MCF7)
6 | > 100 µM | > 100 µM | > 100 µM | > 100 µM | 90.8 µM | > 100 µM | > 100 µM | COc1cccc(C2=NN(C)c3c(c4nc5ccccc5nc4c4ccccc34)C2c2cccc(OC)c2)c1 (stereo not given) | 36.3 µM | 64.4 µM | 56 µM | > 100 µM | 70.7 µM
7 | > 100 µM | > 100 µM | > 100 µM | 4.21 µM | 5.91 µM | > 100 µM | > 100 µM | CN1N=C(c2ccc(Br)cc2)C(c2ccc(Br)cc2)c2c1c1ccccc1c1nc3ccccc3nc21 (stereo not given) | > 100 µM | > 100 µM | > 100 µM | > 100 µM | > 100 µM
8 | > 100 µM | > 100 µM | > 100 µM | > 100 µM | > 100 µM | > 100 µM | > 100 µM | COc1ccc(C2=NN(C)c3c(c4nc5ccccc5nc4c4ccccc34)C2c2ccc(OC)cc2)cc1 (stereo not given) | 14.6 µM | 16.7 µM | 18.2 µM | 73.4 µM | 21.8 µM
9 | > 100 µM | > 100 µM | > 100 µM | > 100 µM | > 100 µM | > 100 µM | > 100 µM | CN1N=C(c2ccc(S(C)(=O)=O)cc2)C(c2ccc(S(C)(=O)=O)cc2)c2c1c1ccccc1c1nc3ccccc3nc21 (stereo not given) | 44.7 µM | 62.5 µM | > 100 µM | > 100 µM | 62.7 µM
10 | > 100 µM | > 100 µM | > 100 µM | > 100 µM | 77.9 µM | > 100 µM | > 100 µM | CN1N=C(c2ccc([N+](=O)O)cc2)C(c2ccc([N+](=O)[O-])cc2)c2c1c1ccccc1c1nc3ccccc3nc21 (stereo not given) | > 100 µM | > 100 µM | > 100 µM | > 100 µM | > 100 µM
11 | > 100 µM | > 100 µM | > 100 µM | > 100 µM | > 100 µM | > 100 µM | > 100 µM | CN1N=C(c2ccc(Cl)cc2)C(c2ccc(Cl)cc2)c2c1c1ccccc1c1nc3ccccc3nc21 (stereo not given) | > 100 µM | > 100 µM | > 100 µM | > 100 µM | > 100 µM

— ChEMBL document CHEMBL4811261, “Synthesis and biological evaluation of novel benzo[a]pyridazino[3,4-c]phenazine derivatives” (Bioorg Med Chem Lett, 2021)
